Results as given in patent US7208524B2, “5-amidino-2-hydroxybenzenesulfonamide derivatives, pharmaceutical compositions containing the same and intermediates for their preparation” (Kissei Pharmaceutical Co., Ltd., priority 2000, dated 2007).

How the values were obtained:
normal human plasma = test: Measurement of anticoagulation effects (prolongation of plasma prothrombin time)
Method: Two μL of a dimethylsulfoxide solution of a test compound was put in the process tube and then incubated at 37° C. One minute after addition of 48 μL of normal human plasma (George King Bio-Medical Inc), 100 μL of plasma prothrombin time reagent (Boehringer Mannheim) prewarmed at 37° C. was added into the mixture. Prothrombin time was measured with a coagulometer (ST4, Boehringer Mannheim).
The group without any test compound was defined as the control. The concentration of test compound that prolonged the clotting time of the control by 2 times (CT2) was obtained and, this value was used as the index of anticoagulation activity.

human thrombin = biological target: T1, human thrombin (Homo sapiens, UniProt P00734); test: Measurement of inhibitory activity for thrombin (S-2238 chromogenic substrate); assay type: biochemical; details: S-2238, 10 minutes at 37° C., pH 8.4
T1 construct: human thrombin (Sigma Chemical Company); purchased Sigma Chemical Company
Method: (§1) 2.5 μL of a dimethylsulfoxide solution of a test compound, 187.5 μL of 100 mM tris-200 mM NaCl buffer (pH 8.4) and 50 μL of 1 mM S-2238 (Daiichi Pure Chemicals) aqueous solution were poured into 96 well microplate. Then 10 μL of 2.0 U/mL human thrombin (Sigma Chemical Company) in gelatin-glycine buffer was added and the mixture was incubated for 10 minutes at 37° C. The reaction was terminated with the addition of 50 μL of 60% acetic acid and absorbance (405 nm) was measured by a microplate reader (SPECTRAmax 250, Molecular Devices).
The group with 2.5 μL of the dimethylsulfoxide solution instead of the test compound solution was defined as the control, and the group with 10 μL of the gelatin-glycine buffer solution instead of human thrombin was defined as the blank. The concentration of a test compound that inhibited the absorbance of control by 50% (IC50) was obtained, and this value was used as the index of inhibitory activity for thrombin.

Male ICR mice = test: Acute toxicity test; assay type: in vivo; details: 50.0 mg/10.0 mL/kg into tail vein, survival judged for 24 hours, groups of 5
Method: Male ICR mice aged 7 weeks (SLC) were divided into several groups consisted of 5 mice. A solution containing a test compound was prepared at the concentration that became the administration volume of the test compound to be 50.0 mg/10.0 mL/kg. The solution was administered into tail vein at an infusion rate of 1 mL/minute. Observations were performed at constant interval, and survival rate was judged for 24 hours. Results were shown as Table 5, and no death case was observed.

[1] = biological target: T2, human activated blood coagulation factor X (Homo sapiens, UniProt P00742); test: Measurement of inhibitory activity for activated blood coagulation factor X (S-2222 chromogenic substrate); assay type: biochemical; details: S-2222, 10 minutes at 37° C., pH 8.4
T2 construct: purchased Calbiochem
Method: as §1, with “S-2222” for “S-2238”, “0.6” for “2.0”, “activated blood coagulation factor X (Calbiochem)” for “thrombin (Sigma Chemical Company)”
Target sequence in this assay (P00742 235-488 limits assumed): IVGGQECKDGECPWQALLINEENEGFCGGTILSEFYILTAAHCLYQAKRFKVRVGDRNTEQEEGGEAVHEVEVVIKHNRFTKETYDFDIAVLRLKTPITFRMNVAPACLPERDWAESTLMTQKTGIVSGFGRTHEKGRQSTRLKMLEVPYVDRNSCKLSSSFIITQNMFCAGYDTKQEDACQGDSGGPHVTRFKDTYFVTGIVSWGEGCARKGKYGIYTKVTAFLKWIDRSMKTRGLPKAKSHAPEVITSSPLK
Target sequence in this assay (P00742 41-179 partner limits assumed): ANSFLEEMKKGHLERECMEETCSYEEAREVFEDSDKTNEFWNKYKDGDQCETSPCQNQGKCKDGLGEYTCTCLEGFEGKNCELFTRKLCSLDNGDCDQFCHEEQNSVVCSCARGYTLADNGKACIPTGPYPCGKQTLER
The group with 2.5 μL of the dimethylsulfoxide solution instead of the test compound solution was defined as the control, and the group with 10 μL of the gelatin-glycine buffer solution instead of human activated blood coagulation factor X was defined as the blank.

[2] = biological target: T2, human activated blood coagulation factor X; test: Oral administration test in rats: anti-activated blood coagulation factor X activity in plasma; assay type: in vivo, rat; details: male Wistar rats, 30 minutes after oral administration, 30 mg/kg; plasma tested against human factor Xa
Method: (§2) Male Wistar rats aged 6–9 weeks (SLC) fasted overnight were used. A test compound was dissolved or suspended in 0.5% methylcellulose solution at the concentration of 6.0 mg/mL. Then 5.0 mL/kg of that was orally administrated into the rats. Before and at proper time points after administration of the test compound, citrated (1:10 dilution, 3.13% sodium citrate) blood was collected from the jugular vein. Plasma samples were obtained by centrifugation.
2.5 μL of plasma sample, 200 μL of 100 mM tris-200 mM NaCl buffer (pH 8.4) and 10 μL of 0.06 U/mL human activated blood coagulation factor X (Calbiochem) in gelatin-glycine buffer were poured into 96 well microplate. Then 50 μL of 1 mM S-2222 (Daiichi Pure Chemicals) aqueous solution was added and the mixture was incubated for 10 minutes at room temperature. The reaction was terminated with the addition of 50 μL of 60% acetic acid and absorbance (405 nm) was measured by a microplate reader (SPECTRAmax 250, Molecular Devices).
The group with 2.5 μL of the control plasma instead of the plasma sample was defined as the control, and the group with 10 μL of gelatin-glycine buffer solution instead of human activated blood coagulation factor X was defined as the blank. The inhibitory % of plasma sample was calculated from absorbance of the control as 100% and this value was used as the index of anti-activated blood coagulation factor X activity in plasma.
(§3) 4) Results of anti-activated blood coagulation factor X activity in plasma and PT ratio at 30 minutes after oral administration of each test compound at a dose of 30 mg/kg were shown as Table 4.
Target sequence in this assay (P00742 235-488 limits assumed): as the sequence (P00742 235-488 limits assumed) above
Target sequence in this assay (P00742 41-179 limits assumed): as the sequence (P00742 41-179 partner limits assumed) above

plasma prothrombin time = test: Oral administration test in rats: prothrombin time (PT) of plasma; assay type: in vivo, rat; details: male Wistar rats, 30 minutes after oral administration, 30 mg/kg; PT after administration to that before
Method: as §2
Fifty μL of plasma was put in the process tube and then incubated at 37° C. One minute later, 100 μL of plasma PT reagent (Boehringer Mannheim) prewarmed at 37° C. was added into the mixture. PT was measured with a coagulometer (ST4, Boehringer Mannheim).
The ratio of PT at each time point after administration of the test compound to that of before administration was used as the index of anticoagulation activity.
as §3

SMILES	IC50 (human thrombin) [nM]	IC50 [1] [nM]	Anti-activated blood coagulation factor X activity in plasma (%) [2] [%]	Anticoagulation activity (μM): concentration that prolonged the clotting time of the control by 2 times (CT2) (normal human plasma) [µM]	Death case (Male ICR mice)	PT ratio (plasma prothrombin time)
CC(C)c1ccc(CCNS(=O)(=O)c2cc(C(=N)N)ccc2O)c(OCC(=O)O)c1 [Compound 42, [2-[2-(5-Carbamimidoyl-2-hydroxybenzenesulfonylamino)-ethyl]-5-isopropylphenoxy]acetic acid]	> 100000	100		2.4	0/5	
CC(C)c1ccc(CCNS(=O)(=O)c2cc(C(=N)N)ccc2O)c(S(N)(=O)=O)c1 [Compound 52, 5-Carbamimidoyl-2-hydroxy-N-[2-(4-isopropyl-2-sulfamoylphenyl)ethyl]benzenesulfonamide]	> 100000	16				
Cc1nc(CN(CCc2ccc(C(C)C)cc2OCC(=O)O)S(=O)(=O)c2cc(C(=N)N)ccc2O)cs1 [Compound 53, [2-[2-[(5-Carbamimidoyl-2-hydroxybenzenesulfonyl)-(2-methyl-1,3-thiazol-4-ylmethyl)amino]ethyl]-5-isopropylphenoxy]acetic acid]	> 100000	51				

More lines, main results first:

IC50 (human thrombin) [nM]	IC50 [1] [nM]	Anti-activated blood coagulation factor X activity in plasma (%) [2] [%]	SMILES	Anticoagulation activity (μM): concentration that prolonged the clotting time of the control by 2 times (CT2) (normal human plasma) [µM]	Death case (Male ICR mice)	PT ratio (plasma prothrombin time)
> 100000			CS(=O)(=O)c1ccccc1-c1ccc(CCNS(=O)(=O)c2cc(C(=N)N)ccc2O)c(OCC(=O)O)c1.Cl [Compound 33, [4-[2-(5-Carbamimidoyl-2-hydroxybenzenesulfonylamino)-ethyl]-2′-methanesulfonoylbiphenyl-3-yloxy]acetic acid hydrochloride]	0.52		
		32.0	CCOC(=O)COc1cc(-c2ccccc2S(C)(=O)=O)ccc1CCNS(=O)(=O)c1cc(C(=N)NO)ccc1O [Compound 43, Ethyl[4-[2-[2-hydroxy-5-(N-hydroxycarbamimidoyl)-benzenesulfonylamino]ethyl]-2′-mthanesulfonylbiphenyl-3-yloxy]acetate]			1.31
		58.2	CCCCOC(=O)COc1cc(-c2ccccc2S(C)(=O)=O)ccc1CCNS(=O)(=O)c1cc(C(=N)NO)ccc1O.Cl [Compound 48, n-Butyl[4-[2-[2-Hydroxy-5-(N-hydroxycarbamimidoyl)-benzenesulfonylamino]ethyl]-2′-methanesulfonylbiphenyl-3-yloxy]acetate hydrochloride]			1.50
		51.4	CS(=O)(=O)c1ccccc1-c1ccc(CCNS(=O)(=O)c2cc(C(=N)NO)ccc2O)c(OCC(=O)OC2CCCCC2)c1 [Compound 49, Cyclohexyl[4-[2-[2-hydroxy-5-(N-hydroxycarbamimidoyl)-benzenesulfonylamino]ethyl]-2′-methanesulfonylbiphenyl-3-yloxy]acetate]			1.43
